Legend:
Assay in all cases: area under dose-response viability curve (log dose) (AUC (arbitrary)); higher = less sensitive
Conditions in all cases: 72 h
AR-42 = compound: CC(C)[C@H](C(=O)Nc1ccc(C(=O)NO)cc1)c1ccccc1 [AR-42]
Method: (§1)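 Primary AML blasts from patients (3q26 EVI1-high and other AML) were treated for 72 h with a dose series of each drug. Viability was measured with an ATP-based CellTiter-Glo assay. The area under the curve of the log-transformed dose-response data was computed in GraphPad Prism; a lower AUC means greater sensitivity.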

Methotrexate = compound: CN(Cc1cnc2nc(N)nc(N)c2n1)c1ccc(C(=O)N[C@@H](CCC(=O)O)C(=O)O)cc1 [Methotrexate]
Method: as §1

Daunorubicine = compound: COc1cccc2c1C(=O)c1c(O)c3c(c(O)c1C2=O)C[C@@](O)(C(C)=O)C[C@@H]3O[C@H]1C[C@H](N)[C@H](O)[C@H](C)O1 [Daunorubicine]
Method: as §1

Belinostat = compound: O=C(/C=C/c1cccc(S(=O)(=O)Nc2ccccc2)c1)NO [Belinostat]
Method: as §1

Entinostat = compound: Nc1ccccc1NC(=O)c1ccc(CNC(=O)OCc2cccnc2)cc1 [Entinostat]
Method: as §1

Vincristine = compound: CC[C@]1(O)C[C@H]2CN(CCc3c([nH]c4ccccc34)[C@@](C(=O)OC)(c3cc4c(cc3OC)N(C=O)[C@H]3[C@@](O)(C(=O)OC)[C@H](OC(C)=O)[C@]5(CC)C=CCN6CC[C@]43[C@@H]65)C2)C1 [Vincristine]
Method: as §1

| Test System | area under dose-response viability curve (AR-42) | area under dose-response viability curve (Methotrexate) | area under dose-response viability curve (Daunorubicine) | area under dose-response viability curve (Belinostat) | area under dose-response viability curve (Entinostat) | area under dose-response viability curve (Vincristine) |
| --- | --- | --- | --- | --- | --- | --- |
| PR#025 (EVI1 status: EVI1Low) | 178 | 247 | 77.4 | 197 | 256 | 214 |
| PR#012 (EVI1 status: EVI1Low) | 131 | 218 | 120 | 192 | 139 | 89.8 |
| PR#003 (EVI1 status: EVI1High) | 112 | 239 | 68 | 156 | 142 | 162 |
| PR#014 (EVI1 status: EVI1Low) | 128 | 248 | 63.9 | 195 | 133 | 198 |
| PR#004 (EVI1 status: EVI1High) | 78.8 | 237 | 63.5 | 121 | 84.7 | 171 |

Reference: the supplement of paper PMC11150407
